Here are results for 4 compounds from patent US8592421B2, “Cyclic bioisosters of purine system derivatives and a pharmaceutical composition based thereon” (priority 2003, dated 2013).

One data set deals with thrombocytes. Put plainly: ADP-induced aggregation of thrombocytes in vitro (Born method, plasma enriched with thrombocytes). The data set is classed as cell-based, rabbit. Particulars: 3-minute incubation, ADP 10^−5 M. As to the method: The aggregation of thrombocytes was studied by the Born method based on determination of the changes in the optical density of plasma enriched with thrombocytes after its incubation with an aggregation inductor.
Adenozinediphosphoric acid (ADP) was selected as an aggregation inductor, which in fact is an aggregation generator. Use was made of a sample (registration number 885) of the Sigma Diagnostics Company (USA) in final concentration of 10^−5 M.
The experiments were carried out on male rabbits of the “Chinchilla” breed having a mass of 2.7±0.3 kg. 18-24 hours prior to the experiment they were deprived of feed while preserving free access to water.
To obtain plasma enriched with thrombocytes, blood was taken from a cut of a marginal vein of the rabbit ear, the sample was stabilized with 3.8% of sodium citrate solution in a ratio of 9:1 and centrifuged at 200 g (1000 rev/min) for 10 minutes. The top supernatant layer enriched with thrombocytes was transferred by an automatic dropper into a silicone test tube and kept at 37° C. The plasma enriched with thrombocytes contained, on the average, […]. If this content exceeded the specified 3×10^8 blood platelets in 1 liter, this sample was diluted to the necessary concentration with plasma deprived of thrombocytes, which was obtained by centrifuging blood at 650 g during 10 minutes.
The measurements of the optical density of the samples were made on two-channel aggregometer of the “Chronolog” Company (USA). A flask containing 490 mkl of plasma rich with thrombocytes was placed in a device, into which a magnetic agitator covered with Teflon was lowered. The index of maximum amplitude of aggregation (MA) in percent of a fall of the plasma optical density under effect of the aggregation inductor was recorded. The control index MA of plasma was compared with the MA of plasma incubated for 3 minutes with different concentrations of the compounds: from 10^−3 to 10^−7 in vitro experiments or with plasma obtained 15, 30, 60 and 120 minutes after intravenous administration of different doses of the compounds in vivo experiments.
The process of aggregation of thrombocytes was recorded with the help of a computer; on the monitor screen the there were depicted curves reflecting changes of the optical density of the plasma enriched which was taken as a standard 100% compared to the optical density of the non-thrombocyte plasma taken for 0% content of thrombocytes.
Under in vitro conditions a flask was filled with blood plasma enriched with thrombocytes, to which an aggregation inductor ADP was added at a concentration of 10^−5 M, incubated for 3 minutes, and then the compounds according to the invention were introduced directly into the flask. Their action by aggregation of thrombocytes was studied after 3-minute incubation in a wide range of concentrations from 10^−3 to 10^−7 M to minimum concentration of 10^−7M not inducing no effect of suppressing the aggregation.

Data set [1] deals with embryonic fibroblasts of mouse NIH-3T3. Briefly: Effect on endocellular pHi of fibroblasts (microspectrofluorimetry with FDA / BCECF-AM). Format: cell-based. Conditions: for rise of pHi: fibroblasts in an attached spread state; for change of pHi: medium DME without blood serum, 20 minutes; for increase of pHi of cytosol: medium with 10.0% blood serum, 20 minutes after addition. As to the method: The effect of the compounds according to the invention on the endocellular pH, embryonic fibroblasts of mouse NIH-3T3 supplied by the All-Russian Collection of Cellular Cultures of the Institute of Cytology of the Russian Academy of Sciences St. Petersburg was investigated. The cells were grown in the DMEM (Sigma) medium containing 2.2 g/l of sodium bicarbonate with addition of 80.0 mkg/ml of gentamicin and 10.0% embryonal veal serum at a temperature of 37° C. in an atmosphere containing 5.0% of carbon dioxide. For these experiments use was also made of a medium buffer with 5.0 mM of HEPES and 15.0 mM of sodium bicarbonate without serum or with addition of 5.0% serum. The cells were calculated with the help of a hemocytometer. A share of the dead cells was determined by colouring trypan blue.
The measurements of the endocellular pHi were carried out with the help of colorants FDA (Sigma) and BCECF-AM (Calbiochem) on a microspectrofluorimeter by a standard technique (Koshevoy Yu. V., Akatov V. S., Grobova M. E. Microspectrofluorimeter for measuring endocellular pH (micro pH)”. Devices and equipment for studies in the field of physical-and-chemical biology and biotechnology. Pushchino, 1990. P. 8-14).
The cells at a temperature of 37° C. were colored within 5 minutes with 5.0 mkM PDA that before the colouring was prepared from a 10.0 mM solution in acetone by dilution for 30 minutes in a phosphatic buffer to 0.1 mM or 2.0 mkM 1.0 mM solution BCECF-AM in DMSO.
The two-wave method of determining pHi was used based on the ratio intensities of fluorescence of the cells on two wavelengths (Akatov V. S. et all), “Endocellular pH and substrate dependence of proliferation of fibroblasts of Chinese hamster, Cytology, 1991, 33 (7), p. 86-94). The fluorescence was excited by light at λ=490 nm, the emission was recorded simultaneously with two photomultipliers on wavelengths λ=535 nm and λ=570 nm. The K-ratio of the fluorescence on two wavelengths was determined with a deduction of the background fluorescence of the medium near the investigated cells for 40-60 individual cells, which are then averaged taking into account the measurement error. A thermostatically controlled table was used that allowed measurements to be conducted at a temperature of 37° C. An account was taken for the photodynamic damage of the pigmented cells during long-time continuous illumination by excited light. The readings were taken from a section of the preparation exposed to light for not more than 5 minutes.
The calibration curves for determining the absolute pHi values by magnitude K were constructed using the Thomas technique (Thomas J. A., Bushbaum R. N., Zimniak A. w Racker E. “Intracellular pH measurements in Ehrlich ascites tumor cells utilizing spectroscopic probe generated in situ”, Biochemistry, 1979, v. 18, p. 2210-2218), for which case the pigmented cells treated for 5-10 minutes with carboxyacidic nigericyn (Calbiochem) at a concentration of 5-10 mkg/ml was placed in a solution with a high content of potassium—130 mM KCl, 1.0 mM MgCl2, 20.0 mM of HEPES) and with pH values from 6.2 to 7.6. The K values were measured in the media with different pH assuming that pHi of the cells equals to the pH of the medium due to the action of nigericyn, which exchanges potassium ions for protons and at a high content of potassium in the medium counterbalances the pH of the medium and cells. Calibration curves were used based on the fluorescence of same medium with addition of 5.0 mkM of fluorescence or BCECF were used to the control the stability of the of the instrument readings.
The cells were colored by pigment BCECF-AM and pHi was measured 10 minutes after incubation in the medium with an appropriate pH value. […]

Data set [2] in a line: Electrochemical activity: polarographic reduction on mercury dripping electrode. Format: physicochemical. Conditions: for i: 2.0% sodium chloride background, 9·10^−4 M; for i / −E1/2: 37° C., forward trace, average for the group of compounds; for −E1/2: vs SCE. As for the experimental part:
The study was carried out on a general-purpose polarograph PU-1 with a two-coordinate recorder of the “LKD” type using a three-electrode thermostatically controlled polarographic cell and mercury dripping electrode (MDE) with forced separation of the drop and a dropping period of 0.5 second. A platinum wire was used as an auxiliary electrode and a saturated calomel electrode (SCE) was used as a control electrode.
2.0% solutions of sodium chloride having pH 7.0, 7.2, 7.4, 7.6 were used as a background; the pH values of the background solution were corrected by a solution of sodium hydroxide. The polarographic cell was filled with 5.0 ml of the background solution and for 5 minutes was purged with nitrogen for removing the dissolved oxygen. Then 0.5 ml of solution of the studied substance was added to the background solution, and the polarogram was recorded as a polarographic wave. The concentration of the compounds in the polarographic cell was 9·10^−4 M.
The pH was measured on the pH-meter with an accuracy of +0.05 pH units. The polarographic measurements were carried out at a temperature of 37° C. The recording of polarograms of the investigated materials was effected under conditions of DC current at a scanning rate of the potential 10.0 mV/s with a active scanning stroke from a potential 0 to −0.5 V and sweep retrace from a −0.5 V to 0. The electric-current sensitivity was 5.0 mkA. The scale by the coordinate of the potentials was 50.0 mV/cm. The values of potentials of the half-wave E1/2 of the investigated materials are given with respect to the SCE potential.
The polarogram parameters such as a limiting current ilim and E1/2 were determined by the graphic method. The number of electrons participating in the reaction was calculated on the basis of the analysis of the polarographic wave using the Geirovsky-Ilkovich equation.
The calculation of the number of electrons participating in the reduction reaction was effected using the Geirovsky-Ilkovich equation: […]

As to `O=c1[nH]n([C@@H]2O[C@H](CO)[C@@H](O)[C@H]2O)c(=O)c2nccc(O)c12.[Na].[Na]` [Compound 4, disodium salt of 4-hydroxy-7-(βD-ribofuranosile)pyrido[2,3-d]-6H-pyridazine-5,8-dione], the “MA - fall of optical density of plasma, % to the standard” value with thrombocytes (10^−3 M, control 60.8 ± 3.4) was found to be 49.2 ± 2.3 %; in the data set with thrombocytes (10^−4 M, control 60.0 ± 2.1) it was 50.2 ± 2.0 %; with thrombocytes (10^−5 M, control 52.5 ± 2.1), 46.2 ± 3.1 %. Further, the “MA - drop of optical density, %” value stood at 50.6 ± 3.1% with thrombocytes (10^−6 M, control 52.8 ± 1.8) and 49.9 ± 3.4% in the data set with thrombocytes (10^−7 M, control 51.5 ± 2.1).
In the same order, the values of `O=c1[nH]n([C@@H]2O[C@H](CO)[C@@H](O)[C@H]2O)c(=O)c2ccccc12.[Na]` [Compound 9, sodium salt of 2-(β-D-ribofuranosile)benzo[d]-3H-pyridazine-1,4-dione] are 47.3 ± 2.0 %, 53.1 ± 1.8 %, 41.4 ± 3.4 %, 49.4 ± 3.2% and 51.2 ± 1.7%.
For the compound `Nc1cnc2c(=O)[nH][nH]c(=O)c2n1.[Na]` [Compound 28, sodium salt of 2-amino-pyrazine[2,3-d]-6H-pyridazine-5,8-dione], the “MA - fall of optical density of plasma, % to the standard” value in the data set with thrombocytes (10^−3 M, control 60.8 ± 3.4) is recorded as 49.7 ± 2.2 %; in the data set on thrombocytes (10^−4 M, control 60.0 ± 2.1) it was 48.9 ± 2.4 %; in the data set on thrombocytes (10^−5 M, control 52.5 ± 2.1), 44.2 ± 2.7 %. The “MA - drop of optical density, %” value in the data set with thrombocytes (10^−7 M, control 51.5 ± 2.1) was 50.4 ± 3.0%.
For the compound `O=c1[nH][nH]c(=O)c2ncncc12.[Li]` [Compound 35, lithium salt of pyrimido[4,5-d]-6H-pyridazine-5,8-dione], the “rise of pHi” value in data set [1] (2.0 mkg/ml, on the average) was 0.10 unit pHi; in data set [1] (20.0 mkg/ml, on the average), 0.07 unit pHi. Moreover, the “change of pHi” value in data set [1] (0.02 mkg/ml) is on record as “no effect was found”; in data set [1] (0.2 mkg/ml), “no effect was found”; in data set [1] (2.0 mkg/ml, on the average), 0.08 unit pHi; in data set [1] (20.0 mkg/ml, on the average), 0.08 unit pHi; in data set [1] (200 mkg/ml) it was “no effect was found”; in data set [1] (1000 mkg/ml), “no effect was found”. For the same compound, the “increase of pHi of cytosol” value in data set [1] (0.02 mkg/ml) is listed as “do not initiate a change of pH”; in data set [1] (0.2 mkg/ml, on the average), 0.1 unit pH; in data set [1] (2.0 mkg/ml, on the average) it was 0.12 unit pH; in data set [1] (20.0 mkg/ml), “do not initiate a change of pH”. Moreover, in data set [2] (calculated with Geirovsky-Ilkovich equation), the “number of electrons participating in the reduction reaction” value is listed as 3.5. For the same compound, the i is listed as 0.30 ± 0.05 mkA in data set [2] (pH 7.0), 0.26 ± 0.02 mkA in data set [2] (pH 7.2), 0.30 ± 0.03 mkA in data set [2] (pH 7.4) and 0.30 ± 0.02 mkA in data set [2] (pH 7.6). Further, the “−E1/2” value in data set [2] (pH 7.0) came out at 0.08 ± 0.02 V; in data set [2] (pH 7.2), 0.085 ± 0.015 V; in data set [2] (pH 7.4), 0.085 ± 0.02 V; in data set [2] (pH 7.6), 0.09 ± 0.02 V. In data set [2] (polarograms of reverse stroke), the “half-wave potential more positive at reverse stroke compared to forward stroke” value is reported as 27.0 mV.
